Consider 26 molecules from patent US20230286970A1, “NOVEL OXADIAZOLE-BASED SELECTIVE HDAC6 INHIBITORS” (ITALFARMACO S.P.A., priority 2020, published 2023).

One test addresses recombinant human HDAC6 (Homo sapiens (Human), UniProt Q9UBN7). The test can be described thus: Enzymatic screening, HDAC6 inhibition (fluorogenic FdL_G substrate). Format: biochemical. In outline: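 Enzyme was preincubated with compound (8 doses, triplicate, 1% DMSO) in 25 mM Tris-HCl pH 8, 130 mM NaCl, 0.05% Tween-20, 10% glycerol, with BSA. A FLUOR DE LYS-Green substrate was then added, and fluorescence was read after developer plus 2 μM TSA.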

Another test has as its target recombinant human HDAC1 (Homo sapiens (Human), UniProt Q13547). The test can be described thus: Enzymatic screening, HDAC1 inhibition (fluorogenic FdL_G substrate). The test is classed as biochemical. Summed up: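 Recombinant human HDAC1 inhibition was measured fluorometrically using the FLUOR DE LYS-Green (FdL_G) substrate. Compounds at 8 doses (1% DMSO final) in Tris-HCl pH 8 buffer with NaCl, Tween-20 and glycerol were preincubated in triplicate with enzyme and 1 mg/mL BSA, then given substrate. Developer I plus 2 μM TSA was added, and fluorescence read after 25 minutes in the dark.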

pIC50: −log10 of the molar value.

Chain of recombinant human HDAC1 (Q13547 whole entry): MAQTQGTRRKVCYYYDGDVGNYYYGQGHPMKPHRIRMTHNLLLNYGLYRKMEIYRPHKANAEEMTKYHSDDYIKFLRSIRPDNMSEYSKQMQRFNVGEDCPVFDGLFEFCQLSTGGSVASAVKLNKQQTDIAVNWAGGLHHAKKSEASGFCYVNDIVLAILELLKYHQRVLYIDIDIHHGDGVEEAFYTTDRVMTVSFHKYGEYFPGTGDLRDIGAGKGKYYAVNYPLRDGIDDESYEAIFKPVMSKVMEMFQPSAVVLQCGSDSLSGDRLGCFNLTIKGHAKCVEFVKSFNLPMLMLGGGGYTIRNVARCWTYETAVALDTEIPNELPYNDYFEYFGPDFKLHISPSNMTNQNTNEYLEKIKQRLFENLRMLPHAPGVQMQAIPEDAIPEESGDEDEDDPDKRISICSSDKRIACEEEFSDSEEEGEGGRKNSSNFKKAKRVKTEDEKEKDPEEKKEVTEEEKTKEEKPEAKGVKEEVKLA
Chain of recombinant human HDAC6 (Q9UBN7 whole entry): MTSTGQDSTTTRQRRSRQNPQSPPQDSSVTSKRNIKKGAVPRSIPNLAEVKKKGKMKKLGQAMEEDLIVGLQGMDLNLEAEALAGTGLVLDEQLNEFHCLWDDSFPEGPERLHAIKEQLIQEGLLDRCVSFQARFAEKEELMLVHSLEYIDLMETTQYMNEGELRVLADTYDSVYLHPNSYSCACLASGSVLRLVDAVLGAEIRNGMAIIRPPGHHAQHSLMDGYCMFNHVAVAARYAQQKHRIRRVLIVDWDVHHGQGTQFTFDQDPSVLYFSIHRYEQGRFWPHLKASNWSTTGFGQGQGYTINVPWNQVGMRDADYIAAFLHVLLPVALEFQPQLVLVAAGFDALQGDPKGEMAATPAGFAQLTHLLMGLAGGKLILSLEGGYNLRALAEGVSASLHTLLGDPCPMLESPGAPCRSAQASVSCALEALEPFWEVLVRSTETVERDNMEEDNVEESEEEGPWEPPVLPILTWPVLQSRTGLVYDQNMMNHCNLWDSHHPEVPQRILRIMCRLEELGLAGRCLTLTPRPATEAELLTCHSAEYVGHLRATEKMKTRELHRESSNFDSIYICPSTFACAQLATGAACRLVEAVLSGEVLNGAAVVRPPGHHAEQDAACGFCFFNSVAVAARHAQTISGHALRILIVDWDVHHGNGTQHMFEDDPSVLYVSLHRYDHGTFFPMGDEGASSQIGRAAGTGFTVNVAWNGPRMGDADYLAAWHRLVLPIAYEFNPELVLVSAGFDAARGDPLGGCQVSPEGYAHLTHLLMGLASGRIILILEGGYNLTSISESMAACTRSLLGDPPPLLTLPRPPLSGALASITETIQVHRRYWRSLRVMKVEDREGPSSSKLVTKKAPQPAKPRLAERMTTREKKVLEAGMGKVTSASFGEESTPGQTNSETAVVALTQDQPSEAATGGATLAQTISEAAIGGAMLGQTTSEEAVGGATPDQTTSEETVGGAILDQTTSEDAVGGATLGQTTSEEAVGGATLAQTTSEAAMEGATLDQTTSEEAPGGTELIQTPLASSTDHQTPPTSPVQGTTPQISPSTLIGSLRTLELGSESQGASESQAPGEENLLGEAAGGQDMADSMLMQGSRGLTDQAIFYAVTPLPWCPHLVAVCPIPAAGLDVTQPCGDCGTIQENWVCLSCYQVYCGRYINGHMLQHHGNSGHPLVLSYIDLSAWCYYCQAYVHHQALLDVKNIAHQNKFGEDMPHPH

By pIC50 is commonly meant −log10 of the IC50, conventionally taken in molar units. For the molecule `CC(C)(C)OC(=O)N1CCc2[nH]c(-c3cccc(-c4nnn(Cc5ccc(-c6nnc(C(F)F)o6)cc5)n4)c3)nc2C1` [compound 272, tert-butyl 2-(3-(2-(4-(5-(difluoromethyl)-1,3,4-oxadiazol-2-yl)benzyl)-2H-tetrazol-5-yl)phenyl)-1,4,6,7-tetrahydro-5H-imidazo[4,5-c]pyridine-5-carboxylate], the figures for the pIC50 on recombinant human HDAC6 and at recombinant human HDAC1 were 6.39 and under 3.70, respectively.

For `Nc1ccc(-c2cn(C(CC3CCC3)c3ccc(-c4nnc(C(F)F)o4)cc3)nn2)cn1` (stereo not shown) [Compd. 242, 5-(1-(2-cyclobutyl-1-(4-(5-(difluoromethyl)-1,3,4-oxadiazol-2-yl)phenyl)ethyl)-1H-1,2,3-triazol-4-yl)pyridin-2-amine], the pIC50 was 6.60 on recombinant human HDAC6 and under 3.70 on recombinant human HDAC1.

Turning to `O=C(Nc1cccc(-c2cn(Cc3ccc(-c4nnc(C(F)F)o4)cc3)cn2)c1)N1CCOCC1` [compd. 267, N-(3-(1-(4-(5-(difluoromethyl)-1,3,4-oxadiazol-2-yl)benzyl)-1H-imidazol-4-yl)phenyl)morpholine-4-carboxamide], the pIC50 at recombinant human HDAC6 was 7.07; at recombinant human HDAC1, under 3.70.

As for `CNc1ccc(-c2nnn(Cc3ccc(-c4nnc(C(F)F)o4)cc3)n2)cc1NC(=O)N1CCOCC1` [compound 176, N-(5-(2-(4-(5-(difluoromethyl)-1,3,4-oxadiazol-2-yl)benzyl)-2H-tetrazol-5-yl)-2-(methylamino)phenyl)morpholine-4-carboxamide], the figures for the pIC50 on recombinant human HDAC6 and on recombinant human HDAC1 were 7.06 and under 3.70, respectively.

Turning to `Fc1cc(Cn2nnc(-c3cccc(-c4nc5c([nH]4)CNCC5)c3)n2)ccc1-c1nnc(C(F)F)o1` [compound 364, 2-(difluoromethyl)-5-[2-fluoro-4-[[5-[3-(4,5,6,7-tetrahydro-3H-imidazo[4,5-c]pyridin-2-yl)phenyl]tetrazol-2-yl]methyl]phenyl]-1,3,4-oxadiazole], the values for the pIC50 on recombinant human HDAC6 and at recombinant human HDAC1 were 7.43 and 3.24, respectively.

In the case of `Nc1ccc(-c2noc(Cc3ccc(-c4nnc(C(F)F)o4)c(F)c3)n2)cc1` [compound 408, 4-(5-(4-(5-(difluoromethyl)-1,3,4-oxadiazol-2-yl)-3-fluorobenzyl)-1,2,4-oxadiazol-3-yl)aniline], the pIC50 on recombinant human HDAC6 was 7.10; on recombinant human HDAC1 it was under 3.00.

With `Nc1nc2ccc(-c3cn(Cc4ccc(-c5nnc(C(F)F)o5)cc4Cl)nn3)cc2s1` [compound 340, 6-[1-[[2-chloro-4-[5-(difluoromethyl)-1,3,4-oxadiazol-2-yl]phenyl]methyl]triazol-4-yl]-1,3-benzothiazol-2-amine], the negative logarithm of the IC50 (pIC50) is 7.39 on recombinant human HDAC6 and under 3.00 on recombinant human HDAC1.

On to `CCCCC(c1ccc(-c2nnc(C(F)F)o2)cc1)n1cc(-c2cccc(NC(=O)N3CCOCC3)c2)nn1` (stereo not shown) [compound 244, N-(3-(1-(1-(4-(5-(difluoromethyl)-1,3,4-oxadiazol-2-yl)phenyl)pentyl)-1H-1,2,3-triazol-4-yl)phenyl)morpholine-4-carboxamide], for which the negative logarithm of the IC50 (pIC50) at recombinant human HDAC6 was 6.62; on recombinant human HDAC1, under 3.70.

Consider `O=C(Nc1cc(-c2nnn(Cc3c(F)cc(-c4nnc(C(F)F)o4)cc3F)n2)ccc1OC(=O)N1CCOCC1)N1CCOCC1` [compound 196, 4-(2-(4-(5-(difluoromethyl)-1,3,4-oxadiazol-2-yl)-2,6-difluorobenzyl)-2H-tetrazol-5-yl)-2-(morpholine-4-carboxamido)phenyl morpholine-4-carboxylate], for which the pIC50 on recombinant human HDAC6 was 6.97; at recombinant human HDAC1 it was under 3.70.

`CN(Cc1ccncc1)Cc1ccc(-c2nc(Cc3c(F)cc(-c4nnc(C(F)F)o4)cc3F)no2)cc1` [compound 254, N-(4-(3-(4-(5-(difluoromethyl)-1,3,4-oxadiazol-2-yl)-2,6-difluorobenzyl)-1,2,4-oxadiazol-5-yl)benzyl)-N-methyl-1-(pyridin-4-yl)methanamine]: the values for the pIC50 on recombinant human HDAC6 and at recombinant human HDAC1 were 6.44 and under 3.70, respectively.

In the case of `Nc1cc2cc(-c3cn(Cc4cc(F)c(-c5nnc(C(F)F)o5)cc4F)nn3)ccc2cn1` [compound 406, 6-[1-({4-[5-(difluoromethyl)-1,3,4-oxadiazol-2-yl]-2,5-difluorophenyl}methyl)-1H-1,2,3-triazol-4-yl]isoquinolin-3-amine], the negative-log IC50 (pIC50) was 7.07 on recombinant human HDAC6 and 3.00 at recombinant human HDAC1.

On to `O=C1NCc2ccc(-c3cn(Cc4ccc(-c5nnc(C(F)F)o5)cn4)cn3)cc21` [Compd. 292, 6-(1-((5-(5-(difluoromethyl)-1,3,4-oxadiazol-2-yl)pyridin-2-yl)methyl)-1H-imidazol-4-yl)isoindolin-1-one], for which the pIC50 is 7.52 on recombinant human HDAC6 and under 3.70 at recombinant human HDAC1.

Take `CC(c1ccc(-c2nnc(C(F)F)o2)cc1F)n1cc(-c2cccc(NC(=O)N3CCOCC3)c2)nn1` (stereo not shown) [compound 165, N-(3-(1-(1-(4-(5-(difluoromethyl)-1,3,4-oxadiazol-2-yl)-2-fluorophenyl)ethyl)-1H-1,2,3-triazol-4-yl)phenyl)morpholine-4-carboxamide]: the figures for the negative logarithm of the IC50 (pIC50) at recombinant human HDAC6 and on recombinant human HDAC1 were 7.11 and under 3.70, respectively.

Take `Fc1cc(Cn2cnc(-c3ccc(NC4=NCCN4)cc3)c2)ccc1-c1nnc(C(F)F)o1` [compound 360, N-[4-[1-[[4-[5-(difluoromethyl)-1,3,4-oxadiazol-2-yl]-3-fluorophenyl]methyl]imidazol-4-yl]phenyl]-4,5-dihydro-1H-imidazol-2-amine]: the negative-log IC50 (pIC50) is 7.74 on recombinant human HDAC6 and under 3.00 at recombinant human HDAC1.

For the molecule `Fc1cc(-c2nnc(C(F)F)o2)c(F)cc1Cn1nnc(-c2cccc(-c3nc4c([nH]3)CCNC4)c2)n1` [compound 367, 2-(difluoromethyl)-5-[2,5-difluoro-4-[[5-[3-(4,5,6,7-tetrahydro-1H-imidazo[4,5-c]pyridin-2-yl)phenyl]tetrazol-2-yl]methyl]phenyl]-1,3,4-oxadiazole], the negative-log IC50 (pIC50) on recombinant human HDAC6 was 7.59; at recombinant human HDAC1, 3.78.

Take `CCS(=O)(=O)N1CCN(Cc2ccc(-c3cn(Cc4c(F)cc(-c5nnc(C(F)F)o5)cc4F)nn3)cc2)CC1` [compound 169, 2-(difluoromethyl)-5-(4-((4-(4-((4-(ethylsulfonyl)piperazin-1-yl)methyl)phenyl)-1H-1,2,3-triazol-1-yl)methyl)-3,5-difluorophenyl)-1,3,4-oxadiazole]: the negative-log IC50 (pIC50) at recombinant human HDAC6 was 7.09; at recombinant human HDAC1, under 3.70.

Consider `FC(F)c1nnc(-c2ccc(Cn3cc(-c4ccc5cn[nH]c5c4)nn3)cc2)o1` [compound 222, 2-(4-((4-(1H-indazol-6-yl)-1H-1,2,3-triazol-1-yl)methyl)phenyl)-5-(difluoromethyl)-1,3,4-oxadiazole], for which the pIC50 is 6.80 on recombinant human HDAC6 and under 3.70 on recombinant human HDAC1.

With `CN(C)C(=O)Nc1cc(-c2nnn(Cc3ccc(-c4nnc(C(F)F)o4)cc3)n2)ccc1O` [compound 31, 3-(5-(2-(4-(5-(difluoromethyl)-1,3,4-oxadiazol-2-yl)benzyl)-2H-tetrazol-5-yl)-2-hydroxyphenyl)-1,1-dimethylurea], the pIC50 is 7.85 on recombinant human HDAC6 and under 3.70 on recombinant human HDAC1.

Regarding `CNc1ccc2cc(-c3cn(Cc4ccc(-c5nnc(C(F)F)o5)cc4)nn3)ccc2n1` [compound 142, 6-(1-(4-(5-(difluoromethyl)-1,3,4-oxadiazol-2-yl)benzyl)-1H-1,2,3-triazol-4-yl)-N-methylquinolin-2-amine], the pIC50 on recombinant human HDAC6 is 7.23; on recombinant human HDAC1 it was under 3.70.

Consider `Nc1cc2cc(-c3cn(Cc4ccc(-c5nnc(C(F)F)o5)cc4F)nn3)ccc2cn1` [compound 405, 6-[1-({4-[5-(difluoromethyl)-1,3,4-oxadiazol-2-yl]-2-fluorophenyl}methyl)-1H-1,2,3-triazol-4-yl]isoquinolin-3-amine], for which the pIC50 at recombinant human HDAC6 was 7.23; at recombinant human HDAC1 it was 3.00.

Regarding `CC1(C)NC(=O)c2cc(-c3cn(Cc4ccc(-c5nnc(C(F)F)o5)cc4)nn3)ccc21` [compound 245, 6-(1-(4-(5-(difluoromethyl)-1,3,4-oxadiazol-2-yl)benzyl)-1H-1,2,3-triazol-4-yl)-3,3-dimethylisoindolin-1-one], the results for the negative logarithm of the IC50 (pIC50) on recombinant human HDAC6 and on recombinant human HDAC1 were 6.58 and under 3.70, respectively.

For `Nc1ccc(-c2cn(Cc3ccc(-c4nnc(C(F)F)o4)nn3)nn2)cn1` [compound 198, 5-(1-((6-(5-(difluoromethyl)-1,3,4-oxadiazol-2-yl)pyridazin-3-yl)methyl)-1H-1,2,3-triazol-4-yl)pyridin-2-amine], the figures for the negative logarithm of the IC50 (pIC50) at recombinant human HDAC6 and at recombinant human HDAC1 were 6.96 and under 3.70, respectively.

For `CC(C)(C)OC(=O)N1CCC2(CC1)C(=O)Nc1ccc(-c3cn(Cc4ccc(-c5nnc(C(F)F)o5)cc4)nn3)cc12` [compound 216, tert-butyl 5-(1-(4-(5-(difluoromethyl)-1,3,4-oxadiazol-2-yl)benzyl)-1H-1,2,3-triazol-4-yl)-2-oxospiro[indoline-3,4′-piperidine]-1′-carboxylate], the negative-log IC50 (pIC50) is 6.82 at recombinant human HDAC6 and under 3.70 on recombinant human HDAC1.

Take `O=[N+]([O-])c1ccccc1-c1nnn(Cc2ccc(-c3nnc(C(F)F)o3)cc2)n1` [compound 150, 2-(difluoromethyl)-5-(4-((5-(2-nitrophenyl)-2H-tetrazol-2-yl)methyl)phenyl)-1,3,4-oxadiazole]: the pIC50 on recombinant human HDAC6 was 7.19; at recombinant human HDAC1, under 3.70.

In the case of `FC(F)c1nnc(-c2ccc(Cn3nnc(-c4cccc5cnccc45)n3)cc2)o1` [compound 153, 2-(difluoromethyl)-5-(4-((5-(isoquinolin-5-yl)-2H-tetrazol-2-yl)methyl)phenyl)-1,3,4-oxadiazole], the pIC50 on recombinant human HDAC6 is 7.18; on recombinant human HDAC1, under 3.70.

As for `CNc1ncc2cc(-c3cn(Cc4c(F)cc(-c5nnc(C(F)F)o5)cc4F)nn3)ccc2n1` [compound 392, 6-[1-({4-[5-(difluoromethyl)-1,3,4-oxadiazol-2-yl]-2,6-difluorophenyl}methyl)-1H-1,2,3-triazol-4-yl]-N-methylquinazolin-2-amine], the figures for the pIC50 at recombinant human HDAC6 and on recombinant human HDAC1 were 6.99 and 3.00, respectively.
